Square brackets hold non-standard residues; d marks the D form. Ends that are not written are not given here. Peptide text beside a SMILES is read from it. 1Nal = N[C@@H](Cc1cccc2ccccc12)C(=O)O; d1Nal = N[C@H](Cc1cccc2ccccc12)C(=O)O; d2Nal = N[C@H](Cc1ccc2ccccc2c1)C(=O)O; Tle = CC(C)(C)[C@H](N)C(=O)O; Abu = CC[C@H](N)C(=O)O; βAla = NCCC(=O)O
What follows are compounds tested on C. albicans (CA-1, Strain SLU-1) (assay: Radial diffusion assay). Conditions: HPLC-purified peptide; nanomoles required to achieve a net 30 mm^2 zone (log titration curve).
Format: cell-based, Candida albicans
Procedure: In the radial diffusion assay procedures, the CA-1 cultures and peptide solutions were prepared as in the broth assay procedure described above. Ten mL of molten underlayer agarose comprising 3% Sabouraud Dextrose broth, 1% agarose (Pharmacia, Piscataway, N.J.), 0.02% Tween 20, and 10 mM sodium phosphate at pH 7.4, was added to polystyrene tubes and maintained in a 56° C. water bath until the addition of yeast. Tubes were cooled to approximately 45° C., yeast were added to give a final concentration of 1×10^6 CFU/mL, and the tubes were mixed again by inverting. The contents were poured into level square petri dishes and distributed evenly. […] A series of wells were punched into the hardened agarose using a sterile 3 mm punch attached to a vacuum apparatus.
Peptides to be assayed were 2-fold serially diluted in Dulbecco's PBS (D-PBS) starting from a concentration of approximately 1 mg/mL. Five μL of each dilution were added to each well and the plates were incubated at 37° C. for 3 hours. An overlayer of 10 mL of molten agarose comprising 6% Sabouraud Dextrose broth, 1% agarose, and 10 mM sodium phosphate, pH 7.4, (at approximately 45° C.) was then added and plates were incubated overnight at 37° C. Following this overnight incubation, a dilute Coomassie solution was poured into the plates and allowed to stain for 24 hours.
Clear zones of growth inhibition around each well were measured with calipers. The actual area of growth inhibition (mm^2) was calculated by subtracting the area of the well. Table 1 below sets out the results of the radial diffusion assays for tested peptides in terms of the number of picomoles (pmol) of peptide required to establish a 30 mm^2 area of growth inhibition calculated by PROBIT analysis (e.g., calculated from regression of the linear portion of log-concentration dose-response curve, log pmol/well vs. net area of inhibition).

Compound	Plate Assay (nmol), pure peptide activity
H-KWLIQLFH-NH2 [Peptide 302]	2.07 nmol
CC[C@H](C)[C@H](NC(=O)[C@H](CC(C)C)NC(=O)[C@@H](N)Cc1c[nH]c2ccccc12)C(=O)N[C@@H](CCC(N)=O)C(=O)N[C@@H](CC(C)C)C(=O)N[C@@H](Cc1ccccc1)C(=O)N[C@@H](Cc1c[nH]cn1)C(=O)N[C@@H](CCCCN)C(N)=O [Peptide 303]	1.306 nmol

Same assay, conditions: crude peptide; nanomoles required to achieve a net 30 mm^2 zone (log titration curve)

Compound	Plate Assay (nmol), crude peptide activity
H-KWLIQLFH-NH2 [Peptide 302]	>5.497 nmol
H-SKVKWLIQ-NH2 [Peptide 299]	>8.768 nmol
CC[C@H](C)[C@H](NC(=O)[C@H](CC(C)C)NC(=O)[C@@H](N)Cc1c[nH]c2ccccc12)C(=O)N[C@@H](CCC(N)=O)C(=O)N[C@@H](CC(C)C)C(=O)N[C@@H](Cc1ccccc1)C(=O)N[C@@H](Cc1c[nH]cn1)C(=O)N[C@@H](CCCCN)C(N)=O [Peptide 303]	>4.694 nmol
H-SKVKWLIQLF-NH2 [Peptide 290]	>2.233 nmol

Same assay, conditions: pmoles of peptide added to well to achieve a 30 mm^2 zone, PROBIT analysis; crude or purified (P′) peptide

Compound	C. albicans pmol/30 mm^2 zone
XMP.390: 151-161, K @ 151 (V), P @ 152 (G) (SEQ ID NO:221) (KPWLIQLFHKK)	674 pmol/30 mm^2 zone
H-KSKVGWLIFLFHKK-NH2 [XMP.91]	>3844 pmol/30 mm^2 zone
CC[C@H](C)[C@H](NC(=O)[C@H](CC(C)C)NC(=O)[C@@H](C)NC(=O)CNC(=O)[C@@H](NC(=O)[C@H](CCCCN)NC(=O)[C@H](CO)NC(=O)[C@@H](N)CCCCN)C(C)C)C(=O)N[C@@H](CCC(N)=O)C(=O)N[C@@H](CC(C)C)C(=O)N[C@@H](Cc1ccccc1)C(=O)N[C@@H](Cc1c[nH]cn1)C(=O)N[C@@H](CCCCN)C(=O)N[C@@H](CCCCN)C(N)=O [XMP.252] (H-KSKVG[dA]LIQLFHKK-NH2)	1,613 pmol/30 mm^2 zone
CC[C@H](C)[C@H](NC(=O)[C@H](CC(C)C)NC(=O)[C@H](Cc1c[nH]c2ccccc12)NC(=O)CNC(=O)[C@@H](NC(=O)[C@H](CCCCN)NC(=O)[C@H](CO)NC(=O)[C@@H](N)CCCCN)C(C)C)C(=O)N[C@@H](CCC(N)=O)C(=O)N[C@@H](Cc1cccc2ccccc12)C(=O)N[C@@H](Cc1ccccc1)C(=O)N[C@@H](Cc1cccc2ccccc12)C(=O)N[C@@H](CCCCN)C(=O)N[C@@H](CCCCN)C(N)=O [XMP.231] (H-KSKVGWLIQ[1Nal]F[1Nal]KK-NH2)	b (No detectable activity up to 5 μg/well)
CC[C@H](C)[C@H](NC(=O)[C@H](CC(C)C)NC(=O)[C@@H](Cc1ccc2ccccc2c1)NC(=O)CNC(=O)[C@@H](NC(=O)[C@H](CCCCN)NC(=O)[C@H](CO)NC(=O)[C@@H](N)CCCCN)C(C)C)C(=O)N[C@@H](CCC(N)=O)C(=O)N[C@@H](CC(C)C)C(=O)N[C@@H](Cc1c[nH]c2ccccc12)C(=O)N[C@@H](Cc1c[nH]cn1)C(=O)N[C@@H](CCCCN)C(=O)N[C@@H](CCCCN)C(N)=O [XMP.243] (H-KSKVG[d2Nal]LIQLWHKK-NH2)	716 pmol/30 mm^2 zone
H-KSKVGWLIYLFHKK-NH2 [XMP.125]	>3150 pmol/30 mm^2 zone
CC[C@H](C)[C@H](NC(=O)[C@H](CC(C)C)NC(=O)[C@@H](NC(=O)CNC(=O)[C@@H](NC(=O)[C@H](CCCCN)NC(=O)[C@H](CO)NC(=O)[C@@H](N)CCCCN)C(C)C)C(C)(C)C)C(=O)N[C@@H](CCC(N)=O)C(=O)N[C@@H](CC(C)C)C(=O)N[C@@H](Cc1ccccc1)C(=O)N[C@@H](Cc1c[nH]cn1)C(=O)N[C@@H](CCCCN)C(=O)N[C@@H](CCCCN)C(N)=O [XMP.258] (H-KSKVG[Tle]LIQLFHKK-NH2)	880 pmol/30 mm^2 zone
CC[C@H](NC(=O)CNC(=O)[C@@H](NC(=O)[C@H](CCCCN)NC(=O)[C@H](CO)NC(=O)[C@@H](N)CCCCN)C(C)C)C(=O)N[C@@H](CC(C)C)C(=O)N[C@H](C(=O)N[C@@H](CCC(N)=O)C(=O)N[C@@H](CC(C)C)C(=O)N[C@@H](Cc1ccccc1)C(=O)N[C@@H](Cc1c[nH]cn1)C(=O)N[C@@H](CCCCN)C(=O)N[C@@H](CCCCN)C(N)=O)[C@@H](C)CC [XMP.255] (H-KSKVG[Abu]LIQLFHKK-NH2)	392 pmol/30 mm^2 zone
H-SKVKWLIQLF-NH2 [XMP.290]	>2,233 pmol/30 mm^2 zone
H-IQLFHK-NH2 [XMP.318]	b (No detectable activity up to 5 μg/well)
H-KSKVGWLITLFHKK-NH2 [XMP.106]	1032 pmol/30 mm^2 zone
CC[C@H](C)[C@H](NC(=O)[C@H](CC(C)C)NC(=O)CCNC(=O)CNC(=O)[C@@H](NC(=O)[C@H](CCCCN)NC(=O)[C@H](CO)NC(=O)[C@@H](N)CCCCN)C(C)C)C(=O)N[C@@H](CCC(N)=O)C(=O)N[C@@H](CC(C)C)C(=O)N[C@@H](Cc1ccccc1)C(=O)N[C@@H](Cc1c[nH]cn1)C(=O)N[C@@H](CCCCN)C(=O)N[C@@H](CCCCN)C(N)=O [XMP.254] (H-KSKVG[βAla]LIQLFHKK-NH2)	1,040 pmol/30 mm^2 zone
H-KSKVGWLIQFFHKK-NH2 [XMP.113]	947 pmol/30 mm^2 zone
H-KWLIQL-NH2 [XMP.315]	>5,069 pmol/30 mm^2 zone
H-KSKVGWLIQLFHAK-NH2 [XMP.43]	785 pmol/30 mm^2 zone
H-KVKWLI-NH2 [XMP.313]	>11,050 pmol/30 mm^2 zone
H-KSKVGWLIQLFHKF-NH2 [XMP.96]	1856 pmol/30 mm^2 zone
CC[C@H](C)[C@H](NC(=O)[C@H](CC(C)C)NC(=O)[C@@H](Cc1cccc2ccccc12)NC(=O)CNC(=O)[C@@H](NC(=O)[C@H](CCCCN)NC(=O)[C@H](CO)NC(=O)[C@@H](N)CCCCN)C(C)C)C(=O)N[C@@H](CCC(N)=O)C(=O)N[C@@H](CC(C)C)C(=O)N[C@@H](Cc1ccccc1)C(=O)N[C@@H](Cc1c[nH]cn1)C(=O)N[C@@H](CCCCN)C(=O)N[C@@H](CCCCN)C(N)=O [XMP.129] (H-KSKVG[d1Nal]LIQLFHKK-NH2)	2117 pmol/30 mm^2 zone
CC[C@H](C)[C@H](NC(=O)[C@H](CC(C)C)NC(=O)[C@H](Cc1cccc2ccccc12)NC(=O)CNC(=O)[C@@H](NC(=O)[C@H](CCCCN)NC(=O)[C@H](CO)NC(=O)[C@@H](N)CCCCN)C(C)C)C(=O)N[C@@H](CCC(N)=O)C(=O)N[C@@H](CC(C)C)C(=O)N[C@@H](Cc1ccccc1)C(=O)N[C@@H](Cc1cccc2ccccc12)C(=O)N[C@@H](CCCCN)C(=O)N[C@@H](CCCCN)C(N)=O [XMP.148] (H-KSKVG[1Nal]LIQLF[1Nal]KK-NH2)	>2805 pmol/30 mm^2 zone
XMP.359: CD - 153-161 (SEQ ID NO:190) ([dC]WLIQLFHKK)	b (No detectable activity up to 5 μg/well)
XMP.137: C-148-161-C (SEQ ID NO:56) (CKSKVGWLIQLFHKKC)	>2286 pmol/30 mm^2 zone
CC[C@H](C)[C@H](NC(=O)[C@H](CC(C)C)NC(=O)[C@H](Cc1c[nH]c2ccccc12)NC(=O)[C@@H](N)CCCCN)C(=O)N[C@@H](CCC(N)=O)C(=O)N[C@@H](CC(C)C)C(=O)N[C@@H](Cc1ccccc1)C(=O)N[C@@H](Cc1c[nH]cn1)C(=O)N[C@@H](CCCCN)C(N)=O [XMP.297]	1,817 pmol/30 mm^2 zone
CC[C@H](C)[C@H](NC(=O)[C@H](CC(C)C)NC(=O)[C@@H](Cc1ccc2ccccc2c1)NC(=O)CNC(=O)[C@@H](NC(=O)[C@H](CCCCN)NC(=O)[C@H](CO)NC(=O)[C@@H](N)CCCCN)C(C)C)C(=O)N[C@@H](CC(C)C)C(=O)N[C@@H](CC(C)C)C(=O)N[C@@H](Cc1ccccc1)C(=O)N[C@@H](Cc1c[nH]cn1)C(=O)N[C@@H](CCCCN)C(=O)N[C@@H](CCCCN)C(N)=O [XMP.242] (H-KSKVG[d2Nal]LILLFHKK-NH2)	359 pmol/30 mm^2 zone
CC[C@H](C)[C@H](NC(=O)[C@H](CC(C)C)NC(=O)[C@H](Cc1c[nH]c2ccccc12)NC(=O)[C@@H](N)CCCCN)C(=O)N[C@@H](CCC(N)=O)C(=O)N[C@@H](CC(C)C)C(=O)N[C@@H](CCCCN)C(=O)N[C@@H](CCCCN)C(N)=O [XMP.324]	894 pmol/30 mm^2 zone
H-KSKVKVAIQLFHKK-NH2 [XMP.269]	635 pmol/30 mm^2 zone
H-GWLIQLFHKKIESALRNKMNS-NH2 [XMP.55]	>2666 pmol/30 mm^2 zone
H-KSKVGWLIQLFHKW-NH2 [XMP.108]	>3219 pmol/30 mm^2 zone
H-SVHVHISKSKVGWLIQLFHKKIESALRNK-NH2 [XMP.12]	>2099 pmol/30 mm^2 zone

Same assay, conditions: pmoles of peptide added to well to achieve a 30 mm^2 zone, PROBIT analysis; crude or purified (P′) peptide; listed as XMP.297P′

Compound	C. albicans pmol/30 mm^2 zone
CC[C@H](C)[C@H](NC(=O)[C@H](CC(C)C)NC(=O)[C@H](Cc1c[nH]c2ccccc12)NC(=O)[C@@H](N)CCCCN)C(=O)N[C@@H](CCC(N)=O)C(=O)N[C@@H](CC(C)C)C(=O)N[C@@H](Cc1ccccc1)C(=O)N[C@@H](Cc1c[nH]cn1)C(=O)N[C@@H](CCCCN)C(N)=O [XMP.297]	564 pmol/30 mm^2 zone

Same assay, conditions: pmoles of peptide added to well to achieve a 30 mm^2 zone, PROBIT analysis; crude or purified (P′) peptide; listed as XMP.315P′

Compound	C. albicans pmol/30 mm^2 zone
H-KWLIQL-NH2 [XMP.315]	>12,853 pmol/30 mm^2 zone
